# Residues, ends and D or L forms follow the SMILES beside them.
# Key:
# Type in all cases: in vivo
# [1] = tested on: Drosophila melanogaster of HEM strain; assay: Reproductive function: share of live and fertile cultures, HEM strain; set-up: key to Share of cultures, Live: % of initial test tubes containing live females; key to Share of cultures, Fertile: % of live cultures in which posterity was given; settings: for Share of cultures, Fertile / Share of cultures, Live: 0.00001% of medium weight
# Protocol: Influence of L-Ala-L-Glu-L-Asp-Gly tetrapeptide (SEQ ID NO: 1) upon Drosophila melanogaster was tested at the stage of larvae of the 2nd-3rd age, by means of adding the preparation to culture medium in dose 0.00001% of the medium weight, which approximately made 0.015 mg/100 ml. The flies, hatched on the 1st day, were placed into test tubes, 5 couples in each, and transferred to fresh medium every 3 to 6 days.
# There have been considered the following factors:
# The share of the test tubes (of their initial amount), which contained live females (in Table 3—the share of live cultures).
# The share of the test tubes (of the number of live cultures), in which posterity was given (in Table 3—the share of fertile cultures).
# In each experimental variant 75 parental couples were analysed. The distinctions between fertility indices were defined by means of Fischer exact criterion for 2×2-adjustment tables (24).
# [2] = tested on: Drosophila melanogaster of LA strain; assay: Life span and ageing rate, LA strain; settings: for ALS / Me / LSmax (maximal life span): 0.00001% of medium weight; for LSmax (maximal life span): in days
# Description: The impact produced by L-Ala-L-Glu-L-Asp-Gly tetrapeptide (SEQ ID NO: 1) on catalase activity, the content of the products of lipid peroxide oxidation (LPO), life span, and the ageing rate were studied in Drosophila melanogaster of LA strain.
# One-day old flies were placed in test tubes, 10 individuals of the same sex in each. Every 2 days they were transferred to a fresh medium taking into consideration the number of deceased individuals. The average and maximal life spans were defined. The ageing rate was calculated by the parameters of Gomperz equation.
# L-Ala-L-Glu-L-Asp-Gly tetrapeptide (SEQ ID NO: 1) was applied in the larvae of the 3rd age in dose 0.00001% of the culture medium weight, which constituted approximately 0.015 mg/100 ml. Catalase activity was estimated by generally accepted methods in the homogenates of adult 14 days old flies. The experiment was carried out with a subsequent repetition.
# Regression and dispersal analyses served as the basic technique of statistic processing. The authenticity of differences was confirmed by the method of minimal relevant diversity.
# [3] = tested on: Drosophila melanogaster of HEM strain; assay: Luminol-dependent tissue chemoluminescence in flies of HEM strain; settings: 0.00001% of culture medium weight
# Description: L-Ala-L-Glu-L-Asp-Gly tetrapeptide (SEQ ID NO: 1) was applied in Drosophila melanogaster larvae of the 2nd age of HEM strain selected for a high ageing rate (20). HEM strain is characterised by the unique dynamics of embryonic mortality, which consists in an increased frequency of early embryonic lethal outcomes from 65% on the 1st day of egg-laying up to 95% on the 4th day, in a reduced average life span (29 days), and in a raised intensity of lipid peroxide oxidation.
# L-Ala-L-Glu-L-Asp-Gly tetrapeptide (SEQ ID NO: 1) was added in proportion 0.00001% of the culture medium weight, which was an extremely low dose. The doses described in literature on the influence of various substances on Drosophila melanogaster usually ranged from 0.001 to 0.01%.
# Biochemical parameters were studied on 14-day old flies. Among them the activity of catalase activity and the intensity of tissue chemoluminescence were analysed (21, 22, 23). Catalase is the basic enzyme of anti-oxidation defence. […] Luminol-dependent chemoluminescence, induced by hydrogen peroxide, reflects the stage of active oxygen forms in tissues. Thus, a decrease in the chemoluminescence intensity indicates an increase in the organism ability to resist oxidative stress.
# white outbred male mice = assay: Acute toxicity according to Kerber
# Protocol: The purpose of the study was to define tolerable toxic doses of the preparation, to estimate the stage and character of pathologic alterations in various organs and systems of the organism, and to identify the correlation between the toxic dose-related effect and the duration of the drug application.
# The investigation was carried out on 66 white outbred male mice weighing 20 to 23 g, which were kept under standard regimen and fed upon standard rations in vivarium conditions. The animals were randomly divided into 6 equal groups of 11 mice in each. The animals were exposed to a single administration of the drug intramuscularly, 0.25 ml in doses 1 mg/kg, 2 mg/kg, 3 mg/kg, 4 mg/kg and 5 mg/kg (several thousand times exceeding the therapeutic dose recommended for clinical trial). Control animals were administered the same amount of sodium chloride.
# [4] = tested on: patients suffering aspirin bronchial asthma; assay: Clinical application in patients suffering aspirin bronchial asthma
# [5] = single intramuscular administration, 1-5 mg/kg
# [6] = 10 μg intramuscularly daily for 10 days
smiles,measurement,setting,value
"C[C@H](N)C(=O)N[C@@H](CCC(=O)O)C(=O)N[C@@H](CC(=O)O)C(=O)NCC(=O)O [L-Ala-L-Glu-L-Asp-Gly tetrapeptide, L-alanyl-L-glutamyl-L-aspartyl-glycine] (H-AEDG-OH)","Coefficient A of lineal regression, fertile culture share on age (y = B + Ax)",[1]; HEM strain,−2.5 ± 0.37
same,"Coefficient A of lineal regression, live culture shares on age (y = B + Ax)",[1]; HEM strain,−1.6 ± 0.17
same,"Coefficient B of lineal regression, fertile culture share on age (y = B + Ax)",[1]; HEM strain,115 ± 11.4
same,"Coefficient B of lineal regression, live culture shares on age (y = B + Ax)",[1]; HEM strain,137 ± 10.6
same,Maximal life span attained,[1]; HEM strain,100 days
same,"“a”-coefficient of fertile-share regression, control higher than experimental variant",[1]; HEM strain,1.8 times
same,Average life span,"[1]; HEM strain, Table 6",54 days
same,Share of live cultures decreases faster than in controls,"[1]; HEM strain, regression analysis",1.5 times
same,Extension of the reproduction period,"[1]; HEM strain, versus control",1.5 fold
same,Duration of the reproductive period,"[1]; HEM strain, 30 days for cultures not exposed",47 days
same,"Share of cultures, Fertile","[1]; day 0, HEM strain",100 + 0.8
same,"Share of cultures, Fertile","[1]; day 6, HEM strain",100 + 0.8
same,"Share of cultures, Fertile","[1]; day 10, HEM strain",93 ± 6.9
same,"Share of cultures, Fertile","[1]; day 13, HEM strain",93 ± 6.9
same,"Share of cultures, Fertile","[1]; day 19, HEM strain",86 ± 9.4
same,"Share of cultures, Fertile","[1]; day 23, HEM strain",43 ± 13.2
same,"Share of cultures, Fertile","[1]; day 27, HEM strain",31 ± 12.9
same,"Share of cultures, Live","[1]; day 27, HEM strain",93 ± 6.9
same,"Share of cultures, Fertile","[1]; day 32, HEM strain",36 ± 14.5
same,"Share of cultures, Live","[1]; day 32, HEM strain",85 ± 10.0
same,"Share of cultures, Fertile","[1]; day 38, HEM strain",9 ± 8.7
same,"Share of cultures, Live","[1]; day 38, HEM strain",85 ± 10.0
same,"Share of cultures, Fertile","[1]; day 44, HEM strain",9 ± 8.7
same,"Share of cultures, Live","[1]; day 44, HEM strain",85 ± 10.0
same,"Share of cultures, Fertile","[1]; day 50, HEM strain",9 ± 8.7
same,"Share of cultures, Live","[1]; day 50, HEM strain",36 ± 12.8
same,"Share of cultures, Fertile","[1]; day 54, HEM strain",0 + 0.9
same,"Share of cultures, Live","[1]; day 54, HEM strain",36 ± 12.8
same,"Share of cultures, Fertile","[1]; day 60, HEM strain",0 + 0.9
same,"Share of cultures, Live","[1]; day 60, HEM strain",29 ± 12.1
same,"Share of cultures, Fertile","[1]; day 66, HEM strain",0 + 0.9
same,"Share of cultures, Live","[1]; day 66, HEM strain",29 ± 12.1
same,"Share of cultures, Fertile","[1]; day 69, HEM strain",0 + 0.9
same,"Share of cultures, Live","[1]; day 69, HEM strain",21 ± 10.9
same,"Share of cultures, Fertile","[1]; day 73, HEM strain",0 + 0.9
same,"Share of cultures, Live","[1]; day 73, HEM strain",7 ± 6.9
same,"Share of cultures, Fertile","[1]; day 76, HEM strain",0 + 0.9
same,"Share of cultures, Live","[1]; day 76, HEM strain",7 ± 6.9
same,"Share of cultures, Fertile","[1]; day 84, HEM strain",0 + 0.9
same,"Share of cultures, Live","[1]; day 84, HEM strain",7 ± 6.9
same,"Share of cultures, Fertile","[1]; day 87, HEM strain",0 + 0.9
same,"Share of cultures, Live","[1]; day 87, HEM strain",7 ± 6.9
same,"Share of cultures, Fertile","[1]; day 100, HEM strain",0 + 0.9
same,"Share of cultures, Live","[1]; day 100, HEM strain",0 + 0.8
same,LSmax without taking into consideration intersexual distinctions,[2]; both sexes,notably extended
same,G 10^2 (parameter of Gomperz equation),[2]; females,4.3 ± 0.90 days^−1
same,LnR0 (parameter of Gomperz equation),[2]; females,-3.806 ± 0.2580 day⁻¹
same,MRDT,[2]; females,3.8
same,Type of geroprotector (survival rate curves and Gomperz charts),[2]; females,geroprotector of the 1st type
same,ALS,[2]; females,20 ± 1.3 days
same,Me,[2]; females,17 days
same,LSmax (maximal life span),[2]; females,44 ± 1.9
same,G 10^2 (parameter of Gomperz equation),[2]; males,10.9 ± 3.45 days^−1
same,LnR0 (parameter of Gomperz equation),[2]; males,−5.496 ± 0.711 days^1
same,MRDT,[2]; males,2.9
same,Type of geroprotector (survival rate curves and Gomperz charts),[2]; males,geroprotector of the 3rd type
same,ALS,[2]; males,24 ± 0.96 days
same,Me,[2]; males,28.5 days
same,LSmax (maximal life span),[2]; males,33 ± 0.9
same,Chemoluminescence,[3]; females,7.9 ± 0.91 conv. unit/mg of protein
same,Chemoluminescence,[3]; males,2.03 ± 0.182 conv. unit/mg of protein
same,Acute toxic reactions,white outbred male mice; doses several thousand times exceeding the therapeutic one,does not induce acute toxic reactions
same,"Alterations in general state, behaviour, locomotor activity, hair and skin integument, physiological discharges",white outbred male mice; [5],No alterations
same,Deaths within 72 hours and in 14 days,white outbred male mice; [5],none of the animals in either of the groups died
same,Clinical state by the end of the treatment,[4]; [6],improvement in clinical state by the end of the treatment was observed in the overwhelming majority of patients
same,"External respiratory function (VBC, MVexhR, FEV1, TV/TLC) immediately after treatment",[4]; [6],did not reveal any essential alterations
same,Reaction to Berotek on the level of distal bronchi,[4]; [6],showed an improvement
same,Excretion of 6-sulfatoxymelatonin in urine,[4]; at night and in the daytime,increased
